According to US8389523B2, “Substituted quinoxaline and an agrochemical composition thereof” (Kumiai Chemical Industry Co., Ltd., priority 2007, dated 2013):

Assays:
Format in all cases: in vivo
Design in all cases: scale not given here
Amaranthus viridis L. [1] = assay: Herbicidal effects in upland field soil treatment (Test Example 2); settings: 1000 g active ingredient per hectare, 21st day after treatment, criteria of Table 138
Outline: (§1)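 Upland soil, seeds sown and covered → diluted WP sprayed uniformly onto soil surface (1000 L/ha; 1000 g a.i./ha) → greenhouse → effect scored day 21.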

[2] = tested on: Abutilon theophrasti medicus; assay: as above; settings: 1000 g active ingredient per hectare, 21st day after treatment, criteria of Table 138
Outline: as §1

[3] = tested on: Monochoria vaginalis (Burm. f.) Presl var. plantaginea (Roxb.) Solms-Laub.; assay: Herbicidal effects in paddy field soil treatment (Test Example 1); settings: for Herbicidal effects index, Monochoria vaginalis (Burm. f.) Presl var. plantaginea (Roxb.) Solms-Laub.: paddy field soil treatment, 1000 g of the active ingredient per hectare, wettable powder added dropwise on water surface, 21st day after treatment
Outline: (§2)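 Sow seeds in puddled, leveled paddy soil; waterlog to 3 cm depth. On the following day apply water-diluted wettable powder onto the water surface (1000 g a.i./ha). Grow in greenhouse and assess herbicidal effect at day 21.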

[4] = tested on: Echinochloa oryzicola Vasing; assay: as above; settings: for Herbicidal effects index, Echinochloa oryzicola Vasing: paddy field soil treatment, 1000 g of the active ingredient per hectare, wettable powder added dropwise on water surface, 21st day after treatment
Outline: as §2

[5] = tested on: Scirpus juncoides Roxb. var. ohwianus. T. Koyama; assay: as above; settings: for Herbicidal effects index, Scirpus juncoides Roxb. var. ohwianus. T. Koyama: paddy field soil treatment, 1000 g of the active ingredient per hectare, wettable powder added dropwise on water surface, 21st day after treatment
Outline: as §2

Amaranthus viridis L. [6] = assay: Herbicidal effects in upland field foliar treatment (Test Example 3); settings: criteria of Table 138; for herbicidal effects on Amaranthus viridis L.: 1000 g of the active ingredient per hectare, 14th day after the treatment, wettable powder; for herbicidal effect (index) on Amaranthus viridis L.: 1000 g active ingredient per hectare, 14th day after treatment
Outline: (§3)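 Seeds sown in upland soil, grown 2 weeks in greenhouse; whole-plant overhead spray of diluted wettable powder at 1000 g a.i./ha (1000 L/ha); kept in greenhouse; effects graded by criteria at 14 d.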

[7] = tested on: Echinochloa crus-galli (L.) P. Beauv. var. crus-galli; assay: as above; settings: criteria of Table 138; for herbicidal effects on Echinochloa crus-galli (L.) P. Beauv. var. crus-galli: 1000 g of the active ingredient per hectare, 14th day after the treatment, wettable powder; for herbicidal effect (index) on Echinochloa crus-galli (L.) P. Beauv. var. crus-galli: 1000 g active ingredient per hectare, 14th day after treatment
Outline: as §3

[8] = tested on: Abutilon theophrasti medicus; assay: as above; settings: criteria of Table 138; for herbicidal effects on Abutilon theophrasti medicus: 1000 g of the active ingredient per hectare, 14th day after the treatment, wettable powder; for herbicidal effect (index) on Abutilon theophrasti medicus: 1000 g active ingredient per hectare, 14th day after treatment
Outline: as §3

[9] = paddy field soil treatment (Test Example 1), criteria of Table 138

Cc1ccc(-n2c(=O)c(C(=O)C3=C(O)CCCC3=O)nc3cccnc32)cc1F [IV-222, 4-(3-fluoro-4-methylphenyl)-2-(2-hydroxy-6-oxo-1-cyclohexenecarbonyl)-pyrido[2,3-b]pyrazin-3 (4H)-one]
herbicidal effect (index) on Amaranthus viridis L. (Amaranthus viridis L. [1]): 5
herbicidal effect (index) on Abutilon theophrasti medicus [2]: 5
herbicidal effect (index) on Monochoria vaginalis (Burm. f.) Presl var. plantaginea (Roxb.) Solms-Laub. [3, 9]: 5
herbicidal effect (index) on Echinochloa oryzicola Vasing [4, 9]: 5
herbicidal effect (index) on Scirpus juncoides Roxb. var. ohwianus. T. Koyama [5, 9]: 5
herbicidal effects on Amaranthus viridis L. (Amaranthus viridis L. [6]): 5
herbicidal effects on Echinochloa crus-galli (L.) P. Beauv. var. crus-galli [7]: 5
herbicidal effects on Abutilon theophrasti medicus [8]: 5

O=C1CCCC(O)=C1C(=O)c1nc2ccccc2n(-c2ccccc2F)c1=O [II-6]
herbicidal effect (index) on Amaranthus viridis L. (Amaranthus viridis L. [1]): 5
herbicidal effect (index) on Abutilon theophrasti medicus [2]: 5
Herbicidal effects index, Monochoria vaginalis (Burm. f.) Presl var. plantaginea (Roxb.) Solms-Laub. [3]: 5
Herbicidal effects index, Echinochloa oryzicola Vasing [4]: 5
Herbicidal effects index, Scirpus juncoides Roxb. var. ohwianus. T. Koyama [5]: 5
herbicidal effect (index) on Amaranthus viridis L. (Amaranthus viridis L. [6]): 5
herbicidal effect (index) on Echinochloa crus-galli (L.) P. Beauv. var. crus-galli [7]: 5
herbicidal effect (index) on Abutilon theophrasti medicus [8]: 5

CC(C)n1c(=O)c(C(=O)C2=C(O)CCCC2=O)nc2ccccc21 [Compound I-13]
herbicidal effect (index) on Amaranthus viridis L. (Amaranthus viridis L. [1]): 5
herbicidal effect (index) on Abutilon theophrasti medicus [2]: 5
Herbicidal effects index, Monochoria vaginalis (Burm. f.) Presl var. plantaginea (Roxb.) Solms-Laub. [3]: 5
Herbicidal effects index, Echinochloa oryzicola Vasing [4]: 5
Herbicidal effects index, Scirpus juncoides Roxb. var. ohwianus. T. Koyama [5]: 5
herbicidal effect (index) on Amaranthus viridis L. (Amaranthus viridis L. [6]): 5
herbicidal effect (index) on Echinochloa crus-galli (L.) P. Beauv. var. crus-galli [7]: 5
herbicidal effect (index) on Abutilon theophrasti medicus [8]: 5

O=C1CCCC(O)=C1C(=O)c1nc2cccnc2n(-c2ccccc2C(F)(F)F)c1=O [IV-34]
herbicidal effect (index) on Amaranthus viridis L. (Amaranthus viridis L. [1]): 5
herbicidal effect (index) on Abutilon theophrasti medicus [2]: 5
Herbicidal effects index, Monochoria vaginalis (Burm. f.) Presl var. plantaginea (Roxb.) Solms-Laub. [3]: 5
Herbicidal effects index, Echinochloa oryzicola Vasing [4]: 5
Herbicidal effects index, Scirpus juncoides Roxb. var. ohwianus. T. Koyama [5]: 5
herbicidal effects on Amaranthus viridis L. (Amaranthus viridis L. [6]): 5
herbicidal effects on Echinochloa crus-galli (L.) P. Beauv. var. crus-galli [7]: 5
herbicidal effects on Abutilon theophrasti medicus [8]: 5

C=CCn1c(=O)c(C(=O)C2=C(O)CCCC2=O)nc2ccccc21 [Compound I-30]
herbicidal effect (index) on Amaranthus viridis L. (Amaranthus viridis L. [1]): 5
herbicidal effect (index) on Abutilon theophrasti medicus [2]: 5
Herbicidal effects index, Monochoria vaginalis (Burm. f.) Presl var. plantaginea (Roxb.) Solms-Laub. [3]: 5
Herbicidal effects index, Echinochloa oryzicola Vasing [4]: 5
Herbicidal effects index, Scirpus juncoides Roxb. var. ohwianus. T. Koyama [5]: 5
herbicidal effect (index) on Amaranthus viridis L. (Amaranthus viridis L. [6]): 5
herbicidal effect (index) on Echinochloa crus-galli (L.) P. Beauv. var. crus-galli [7]: 4
herbicidal effect (index) on Abutilon theophrasti medicus [8]: 5

O=C1CCCC(O)=C1C(=O)c1nc2ccccc2n(CC(F)(F)F)c1=O [I-40]
herbicidal effect (index) on Amaranthus viridis L. (Amaranthus viridis L. [1]): 5
herbicidal effect (index) on Abutilon theophrasti medicus [2]: 5
Herbicidal effects index, Monochoria vaginalis (Burm. f.) Presl var. plantaginea (Roxb.) Solms-Laub. [3]: 5
Herbicidal effects index, Echinochloa oryzicola Vasing [4]: 5
Herbicidal effects index, Scirpus juncoides Roxb. var. ohwianus. T. Koyama [5]: 5
herbicidal effect (index) on Amaranthus viridis L. (Amaranthus viridis L. [6]): 5
herbicidal effect (index) on Echinochloa crus-galli (L.) P. Beauv. var. crus-galli [7]: 5
herbicidal effect (index) on Abutilon theophrasti medicus [8]: 5
